# Strand notation (5' to 3'): a small letter for the sugar, then the base; units joined by * are phosphorothioate-linked, units joined directly phosphodiester-linked; [ ] holds rarer units or linkages, { } end groups; capitals alone tell only the bases. k = constrained ethyl (cEt); [5mC] = 5-methylcytosine; d = 2'-deoxy (DNA)
# Tested on: Yap1 mRNA
# Assay: Antisense inhibition of human Yap1 in A-431 cells by cEt gapmers, single dose (Example 3, RTS36584)
# Assay type: cell-based
# How it was run: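 Free uptake, 2,000 nM, ~48 h, A-431 cells. Gapmers: 16-mer 3-10-3 cEt wings, PS backbone, 5-MeC. Readout qRT-PCR, RiboGreen-normalized, % UTC.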
# [1] = Table 10, A-431 cells, 5,000 cells per well, free uptake, 2,000 nM oligonucleotide, approx. 48 hours, primer probe set RTS36584, Yap1 mRNA normalized to RIBOGREEN, percent of untreated control
# [2] = Table 8, A-431 cells, 5,000 cells per well, free uptake, 2,000 nM, approximately 48 hours, RTS36584, normalized to RIBOGREEN, Yap1 mRNA relative to untreated control cells
# [3] = Table 27, Yap1 mRNA by 3-10-3 cEt gapmers targeting SEQ ID NO.: 1, and 2, percent of untreated control
# [4] = Table 11, A-431 cells, 5,000 cells per well, free uptake, 2,000 nM oligonucleotide, approx. 48 hours, primer probe set RTS36584, Yap1 mRNA normalized to RIBOGREEN, percent of untreated control
# [5] = Table 12, A-431 cells, 5,000 cells per well, free uptake, 2,000 nM modified oligonucleotide, approx. 48 hours, RTS36584, normalized to RIBOGREEN, Yap1 mRNA relative to untreated control cells
# [6] = Table 9, A-431 cells, 5,000 cells per well, free uptake, 2,000 nM, approximately 48 hours, RTS36584, normalized to RIBOGREEN, Yap1 mRNA relative to untreated control cells
# [7] = Table 29, Yap1 mRNA as percent of untreated control, 3-10-3 cEt gapmers targeting SEQ ID NO.: 1, and 2
# [8] = Table 26, Yap1 mRNA by 3-10-3 cEt gapmers targeting SEQ ID NO.: 1, and 2, percent of untreated control
# [9] = Table 34, Yap1 mRNA as percent of untreated control, 3-10-3 cEt gapmers targeting SEQ ID NO: 1 and 2, single dose
# [10] = Table 35, Yap1 mRNA as percent of untreated control, 3-10-3 cEt gapmers targeting SEQ ID NO: 1 and 2, single dose
# [11] = Table 28, Yap1 mRNA as percent of untreated control, 3-10-3 cEt gapmers targeting SEQ ID NO.: 1, and 2
substance,measurement,setting,value
958642 (antisense kG*kA*k[5mC]*dA*dT*d[5mC]*dA*dA*dT*dT*dT*d[5mC]*dA*kG*kT*k[5mC]) [Compound 958642],YAP1 (% UTC),[1],91 % UTC
958370 (antisense k[5mC]*kT*kT*dT*dA*dT*d[5mC]*dT*dA*dG*d[5mC]*dT*dT*kG*kG*kT) [Compound 958370],YAP1 (% UTC),[2],7 % UTC
1075853 (kG*kA*kG*d[5mC]*dG*dA*dT*dA*dA*dG*d[5mC]*dT*dG*kT*kA*kT; antisense) [compound 1075853],YAP1 (% UTC),[3],72 % UTC
958498 (kG*kA*kG*dT*dA*dT*dG*dT*dG*dG*d[5mC]*dA*dA*kT*kA*kA; antisense) [Compound 958498],YAP1 (% UTC),[4],1 % UTC
958653 (kT*kT*kA*d[5mC]*dA*d[5mC]*dA*d[5mC]*dA*dG*dG*d[5mC]*dT*kA*kT*kG; antisense) [Compound 958653],YAP1 (% UTC),[4],17 % UTC
958614 (antisense kG*kT*k[5mC]*dT*dT*dG*dT*dT*d[5mC]*dT*dT*dA*dT*kG*kG*kT) [Compound 958614],YAP1 (% UTC),[5],6 % UTC
958761 (antisense kA*kG*kT*d[5mC]*dT*d[5mC]*dA*dA*d[5mC]*dA*dA*d[5mC]*d[5mC]*kT*kT*k[5mC]) [Compound 958761],YAP1 (% UTC),[6],7 % UTC
1076271 (k[5mC]*kG*kG*d[5mC]*dA*dA*d[5mC]*dA*dA*d[5mC]*dA*dA*dA*kA*kT*kG; antisense) [compound 1076271],YAP1 (% UTC),[7],18 % UTC
1074860 (kA*kA*kA*dG*dG*dT*dA*dA*d[5mC]*dA*dT*dT*dG*kG*kT*kA; antisense) [compound 1074860],YAP1 (% UTC),[8],9 % UTC
1074644 (antisense kA*kT*kT*dG*dA*dA*dG*dG*dG*d[5mC]*d[5mC]*dA*dA*kA*kA*kT) [compound 1074644],YAP1 (% UTC),[9],93 % UTC
1075572 (antisense k[5mC]*kA*kA*dT*dT*dT*dA*dA*d[5mC]*dT*dG*dT*dT*kA*k[5mC]*kA) [compound 1075572],YAP1 (% UTC),[9],84 % UTC
958721 (antisense kG*kT*kA*dG*dT*dA*dT*dA*dA*dT*dG*dA*dG*kT*kT*kA) [Compound 958721],YAP1 (% UTC),[6],1 % UTC
1075631 (antisense k[5mC]*k[5mC]*k[5mC]*dT*dA*dT*dA*dA*d[5mC]*d[5mC]*dA*dA*dA*kT*kG*k[5mC]) [compound 1075631],YAP1 (% UTC),[7],104 % UTC
958551 (k[5mC]*kT*k[5mC]*d[5mC]*dT*dG*dT*dA*dG*dA*d[5mC]*dA*d[5mC]*kA*kT*kA; antisense) [Compound 958551],YAP1 (% UTC),[6],5 % UTC
1075445 (antisense kT*kA*kT*dA*dA*dA*dT*d[5mC]*d[5mC]*dT*d[5mC]*dA*dT*kG*kT*kG) [compound 1075445],YAP1 (% UTC),[10],84 % UTC
1076398 (antisense k[5mC]*kT*kT*dG*dA*dA*dG*dG*dG*d[5mC]*dT*dA*dT*kG*kG*kA) [compound 1076398],YAP1 (% UTC),[11],62 % UTC
958361 (antisense kG*k[5mC]*kT*d[5mC]*dG*dA*dA*d[5mC]*dA*dT*dG*d[5mC]*dT*kG*kT*kG) [Compound 958361],YAP1 (% UTC),[2],8 % UTC
958583 (kA*kG*k[5mC]*dT*dA*dA*dT*d[5mC]*dT*dG*d[5mC]*dT*dG*kA*kT*kA; antisense) [Compound 958583],YAP1 (% UTC),[4],89 % UTC
1075028 (antisense kA*kA*kA*dA*dA*dT*d[5mC]*dA*dA*dG*d[5mC]*d[5mC]*d[5mC]*kT*k[5mC]*kG) [compound 1075028],YAP1 (% UTC),[9],103 % UTC
958603 (kT*kG*kG*dT*dA*dT*dG*dA*dA*dT*dT*d[5mC]*dT*kG*kA*kA; antisense) [Compound 958603],YAP1 (% UTC),[4],3 % UTC
958627 (antisense kT*kT*kG*dG*dG*d[5mC]*dA*dA*dA*dG*dT*dT*d[5mC]*k[5mC]*kT*kA) [Compound 958627],YAP1 (% UTC),[1],61 % UTC
958540 (kA*kT*kT*d[5mC]*dT*dA*dT*d[5mC]*d[5mC]*dA*dG*dG*dG*kT*k[5mC]*kA; antisense) [Compound 958540],YAP1 (% UTC),"Table 13, A-431 cells, 5,000 cells per well, free uptake, 2,000 nM modified oligonucleotide, approx. 48 hours, RTS36584, normalized to RIBOGREEN, Yap1 mRNA relative to untreated control cells",8 % UTC
958544 (kG*k[5mC]*kT*dA*dA*dA*dT*dT*d[5mC]*dA*dA*d[5mC]*dT*kA*k[5mC]*k[5mC]; antisense) [Compound 958544],YAP1 (% UTC),[5],8 % UTC
958694 (antisense kA*kT*kT*dG*dG*dT*dG*dG*dT*dG*dT*d[5mC]*dT*k[5mC]*kA*k[5mC]) [Compound 958694],YAP1 (% UTC),[5],41 % UTC
1076021 (k[5mC]*kA*kT*dT*dA*dA*dT*dA*dA*dA*dG*dT*dT*kA*k[5mC]*k[5mC]; antisense) [compound 1076021],YAP1 (% UTC),[10],95 % UTC
1076276 (k[5mC]*kT*kT*dT*dA*dG*dG*dA*dG*dT*d[5mC]*dA*dG*kA*kA*k[5mC]; antisense) [compound 1076276],YAP1 (% UTC),[9],59 % UTC
1075311 (antisense kA*kG*kT*dA*dA*dT*dT*dA*dA*dA*d[5mC]*dG*dA*kA*kA*k[5mC]) [compound 1075311],YAP1 (% UTC),[7],100 % UTC
1076109 (k[5mC]*kT*kT*dA*dA*dA*dT*dG*dA*d[5mC]*d[5mC]*dA*dA*kT*kT*k[5mC]; antisense) [compound 1076109],YAP1 (% UTC),[3],23 % UTC
1075532 (kA*k[5mC]*kT*dT*dA*dA*dT*dA*dG*dT*dT*dT*dA*kA*k[5mC]*k[5mC]; antisense) [compound 1075532],YAP1 (% UTC),[8],121 % UTC
1075342 (antisense kA*k[5mC]*kT*dA*dA*dA*dA*dG*dG*dG*dA*dG*dT*kA*kG*kG) [compound 1075342],YAP1 (% UTC),[11],87 % UTC
958447 (antisense kG*kT*kT*dG*dA*dG*dG*d[5mC]*dG*dG*d[5mC]*dG*dG*k[5mC]*kT*kG) [Compound 958447],YAP1 (% UTC),[1],48 % UTC
958487 (kT*k[5mC]*k[5mC]*dA*dA*dA*d[5mC]*dA*dG*dG*d[5mC]*dT*d[5mC]*kA*k[5mC]*kT; antisense) [Compound 958487],YAP1 (% UTC),[1],10 % UTC
958798 (antisense kT*kG*k[5mC]*dA*dG*dT*dA*dT*dA*dA*dT*dA*dT*k[5mC]*k[5mC]*kT) [Compound 958798],YAP1 (% UTC),[4],3 % UTC
1075309 (antisense kT*kA*kA*dT*dT*dA*dA*dA*d[5mC]*dG*dA*dA*dA*k[5mC]*kA*k[5mC]) [compound 1075309],YAP1 (% UTC),[3],110 % UTC
1075404 (antisense kA*kT*kA*dT*dA*dA*d[5mC]*d[5mC]*dT*dG*dA*dA*d[5mC]*kT*kA*kA) [compound 1075404],YAP1 (% UTC),[8],102 % UTC
1075982 (k[5mC]*kA*kT*dG*dA*dA*dA*dG*d[5mC]*dA*dA*dT*dA*kT*k[5mC]*k[5mC]; antisense) [compound 1075982],YAP1 (% UTC),[11],23 % UTC
1075276 (kG*kA*k[5mC]*d[5mC]*dA*dA*dT*dA*d[5mC]*dA*dA*dT*dG*kG*kG*kA; antisense) [compound 1075276],YAP1 (% UTC),[8],78 % UTC
958629 (antisense k[5mC]*k[5mC]*k[5mC]*dG*dA*dG*dT*dG*dG*dG*d[5mC]*dT*dA*kA*k[5mC]*kT) [Compound 958629],YAP1 (% UTC),[5],128 % UTC

# Reference: patent publication US11214803B2, “Modulators of YAP1 expression” (Ionis Pharmaceuticals, Inc., priority 2019, dated 2022)
